The results in this text go back to ChEMBL document CHEMBL5154889, “Development of Novel IP6K Inhibitors for the Treatment of Obesity and Obesity-Induced Metabolic Dysfunctions” (J Med Chem, 2022).

In data set [1] the target is T1, Inositol hexakisphosphate kinase 3 (Homo sapiens, UniProt Q96PC2).
T1 sequence (Q96PC2 whole entry): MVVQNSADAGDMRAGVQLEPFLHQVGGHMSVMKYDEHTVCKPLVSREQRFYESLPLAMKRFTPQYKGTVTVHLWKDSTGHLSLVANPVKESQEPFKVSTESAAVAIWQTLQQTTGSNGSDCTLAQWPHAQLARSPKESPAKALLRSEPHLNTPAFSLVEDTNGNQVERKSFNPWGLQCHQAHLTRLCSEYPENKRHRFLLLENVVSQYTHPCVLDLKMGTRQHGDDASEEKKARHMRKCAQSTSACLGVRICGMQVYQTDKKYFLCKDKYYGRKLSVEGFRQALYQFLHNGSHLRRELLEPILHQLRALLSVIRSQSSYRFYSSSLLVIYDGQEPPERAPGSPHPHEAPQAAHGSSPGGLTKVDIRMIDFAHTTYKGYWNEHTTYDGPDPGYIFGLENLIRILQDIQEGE
In words: Inhibition of N-terminal 6His-sumo-tagged recombinant human IP6K3 expressed in Escherichia coli assessed as inorganic phosphate release using InsP6 as substrate in presence of ATP measured after 60 to 120 mins by malachite green based colorimetric - DIPP1 coupled enzyme assay.

For data set [2], the target named is T2, Inositol hexakisphosphate kinase 2 (Homo sapiens, UniProt Q9UHH9).
T2 sequence (Q9UHH9 whole entry): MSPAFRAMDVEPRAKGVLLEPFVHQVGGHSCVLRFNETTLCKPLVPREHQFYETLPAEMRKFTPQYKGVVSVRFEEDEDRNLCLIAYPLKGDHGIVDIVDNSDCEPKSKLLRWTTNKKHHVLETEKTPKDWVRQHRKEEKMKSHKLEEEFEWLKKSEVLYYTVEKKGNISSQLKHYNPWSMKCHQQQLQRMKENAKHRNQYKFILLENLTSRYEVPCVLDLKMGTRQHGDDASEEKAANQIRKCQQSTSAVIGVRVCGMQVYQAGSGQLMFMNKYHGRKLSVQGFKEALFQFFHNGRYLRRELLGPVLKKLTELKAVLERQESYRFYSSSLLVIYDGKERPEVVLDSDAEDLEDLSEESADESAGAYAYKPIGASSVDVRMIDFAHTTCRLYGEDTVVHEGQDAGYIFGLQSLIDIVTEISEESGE
As to the kind of experiment: Inhibition of N-terminal 6His-tagged/TEV cleavage site fused recombinant human IP6K2 expressed in Escherichia coli assessed as inorganic phosphate release using InsP6 as substrate in presence of ATP measured after 60 to 120 mins by malachite green based colorimetric - DIPP1 coupled enzyme assay.

The next data set is filed under the species Homo sapiens. In words: Selectivity ratio of IC50 for N-terminal 6His-sumo-tagged recombinant human IP6K3 expressed in Escherichia coli assessed as inorganic phosphate release using InsP6 as substrate in presence of ATP measured to IC50 for N-terminal 6His-MBP-tagged recombinant human IP6K1 expressed in Escherichia coli assessed as inorganic phosphate release using InsP6 as substrate in presence of ATP.

For data set [3], the system named is Mus musculus. As to the kind of experiment: Anti-diabetic activity in 16 hrs fasted C57BL6J mouse model of high fat diet-induced obesity assessed as reduction in pyruvate-induced gluconeogenesis at 2 mg/kg, ip administered for 4 weeks by pyruvate tolerance test. The class given is functional, organism-based.
For data set [4], the target named is Inositol-trisphosphate 3-kinase A (Homo sapiens) (UniProt P23677). As to the kind of experiment: Inhibition of N-terminal 6His-tagged/TEV cleavage site fused recombinant human IP3KA (173 to 461 residues) expressed in Escherichia coli using [3H]-Ins91,4,5)P3 as substrate measured after 60 mins by HPLC analysis.
Chain of Inositol-trisphosphate 3-kinase A (Homo sapiens) (P23677 whole entry, the tested form may be a part): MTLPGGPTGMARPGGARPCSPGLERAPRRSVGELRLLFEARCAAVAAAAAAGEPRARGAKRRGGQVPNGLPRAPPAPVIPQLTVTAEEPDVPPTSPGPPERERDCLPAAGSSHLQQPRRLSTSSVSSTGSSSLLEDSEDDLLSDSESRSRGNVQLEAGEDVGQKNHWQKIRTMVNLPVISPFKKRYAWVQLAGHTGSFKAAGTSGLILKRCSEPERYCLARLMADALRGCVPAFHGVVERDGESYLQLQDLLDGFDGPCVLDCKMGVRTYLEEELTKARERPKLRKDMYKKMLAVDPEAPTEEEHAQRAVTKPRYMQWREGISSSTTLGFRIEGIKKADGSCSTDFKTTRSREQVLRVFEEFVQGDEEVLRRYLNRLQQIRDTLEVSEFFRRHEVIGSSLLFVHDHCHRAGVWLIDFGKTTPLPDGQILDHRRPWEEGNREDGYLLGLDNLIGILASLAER
The target of the next data set is CYP2C9 (Homo sapiens, UniProt P11712). As to the kind of experiment: Inhibition of CYP2C9 in human liver microsomes at 10 uM in presence of NADPH by LC-MS/MS analysis. The class given is ADME, Microsome. For orientation: Liver microsomes are a subcellular fraction often used to study metabolism.
Chain of CYP2C9 (P11712 whole entry): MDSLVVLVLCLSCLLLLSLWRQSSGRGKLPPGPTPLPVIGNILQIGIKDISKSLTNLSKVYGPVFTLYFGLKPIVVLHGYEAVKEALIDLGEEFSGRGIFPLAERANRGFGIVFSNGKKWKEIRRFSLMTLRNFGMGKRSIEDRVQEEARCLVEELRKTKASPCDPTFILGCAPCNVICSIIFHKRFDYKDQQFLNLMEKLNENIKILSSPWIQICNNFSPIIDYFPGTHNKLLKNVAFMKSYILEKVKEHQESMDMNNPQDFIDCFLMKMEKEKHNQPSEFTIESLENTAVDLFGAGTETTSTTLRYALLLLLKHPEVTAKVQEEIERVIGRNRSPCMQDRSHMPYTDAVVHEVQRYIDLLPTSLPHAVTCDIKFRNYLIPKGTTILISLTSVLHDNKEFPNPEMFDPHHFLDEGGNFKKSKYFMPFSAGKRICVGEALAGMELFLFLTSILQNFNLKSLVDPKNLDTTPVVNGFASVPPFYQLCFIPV
A short description of data set [5]: AUClast in diet-induced obesity CD1 mouse model at 5 mg/kg, iv measured up to 24 hrs post-dosing by LC-MS/MS analysis. As to conditions: in vivo. The format is ADME, organism-based. Details: dose 5 mg/kg, time < 24 hrs, route iv.
The nature of data set [6]: AUClast in diet-induced obesity CD1 mouse at 5 mg/kg, ip measured up to 24 hrs post-dosing by LC-MS/MS analysis. Details: dose 5 mg/kg, time < 24 hrs, route ip. The note with it: in vivo. The class given is ADME, organism-based.
A short description of data set [7]: Clearance in diet-induced obesity CD1 mouse at 5 mg/kg, iv measured up to 24 hrs post-dosing by LC-MS/MS analysis. The class given is ADME, organism-based. The note with it: in vivo.
Data set [8] relates to Mus musculus. In words: Anti-obesity activity in high fat diet-induced obesity C57BL6J mouse model assessed as reduction in body weight at 5 mg/kg, ip administered for 4 weeks. The class given is functional, organism-based.
Data set [9] concerns Mus musculus. In words: Anti-obesity activity in high fat diet-induced obesity C57BL6J mouse model assessed as reduction in fat mass at 5 mg/kg, ip administered for 4 weeks. The format is functional, organism-based.
Data set [10] relates to Mus musculus. In words: Anti-obesity activity in high fat diet-induced obesity C57BL6J mouse model assessed as reduction in lean mass at 5 mg/kg, ip administered for 4 weeks. The class given is functional, organism-based.
The subject of data set [11] is Mus musculus. As to the kind of experiment: Anti-obesity activity in high fat diet-induced obesity C57BL6J mouse model assessed as reduction in epididymal-adipose tissue weight at 5 mg/kg, ip administered for 4 weeks. The class given is functional, organism-based.
The subject of data set [12] is Mus musculus. As to the kind of experiment: Anti-obesity activity in high fat diet-induced obesity C57BL6J mouse model assessed as reduction in inguinal-adipose tissue weight at 5 mg/kg, ip administered for 4 weeks. The class given is functional, organism-based.
The test system of data set [13] is Mus musculus. In words: Anti-diabetic activity in 5 hrs fasted C57BL6J mouse model of high fat diet-induced obesity assessed as improved blood glucose disposal at […], ip administered for 1 weeks by insulin tolerance test. The format is functional, organism-based.
The subject of data set [14] is Mus musculus. As to the kind of experiment: Anti-diabetic activity in 16 hrs fasted C57BL6J mouse model of high fat diet-induced obesity assessed as improved blood glucose disposal at 2 mg/kg, ip administered for 3 weeks by insulin tolerance test. The format is functional, organism-based.
The test system of data set [15] is Mus musculus. In words: Reduction in liver weight in C57BL6J mouse model of high fat diet-induced obesity at 2 mg/kg, ip administered for 4 weeks by H and E staining assay. The format is functional, organism-based.
The subject of data set [16] is Mus musculus. In words: Reduction in hepatic steatosis in C57BL6J mouse model of high fat diet-induced obesity at 2 mg/kg, ip administered for 4 weeks by H and E staining assay. The format is functional, organism-based.
For data set [17], the target named is Death-associated protein kinase 1 (Homo sapiens) (UniProt P53355). In words: Inhibition of DAPK1 (unknown origin) at 1 uM relative to control.
Chain of Death-associated protein kinase 1 (Homo sapiens) (P53355 whole entry, looked up): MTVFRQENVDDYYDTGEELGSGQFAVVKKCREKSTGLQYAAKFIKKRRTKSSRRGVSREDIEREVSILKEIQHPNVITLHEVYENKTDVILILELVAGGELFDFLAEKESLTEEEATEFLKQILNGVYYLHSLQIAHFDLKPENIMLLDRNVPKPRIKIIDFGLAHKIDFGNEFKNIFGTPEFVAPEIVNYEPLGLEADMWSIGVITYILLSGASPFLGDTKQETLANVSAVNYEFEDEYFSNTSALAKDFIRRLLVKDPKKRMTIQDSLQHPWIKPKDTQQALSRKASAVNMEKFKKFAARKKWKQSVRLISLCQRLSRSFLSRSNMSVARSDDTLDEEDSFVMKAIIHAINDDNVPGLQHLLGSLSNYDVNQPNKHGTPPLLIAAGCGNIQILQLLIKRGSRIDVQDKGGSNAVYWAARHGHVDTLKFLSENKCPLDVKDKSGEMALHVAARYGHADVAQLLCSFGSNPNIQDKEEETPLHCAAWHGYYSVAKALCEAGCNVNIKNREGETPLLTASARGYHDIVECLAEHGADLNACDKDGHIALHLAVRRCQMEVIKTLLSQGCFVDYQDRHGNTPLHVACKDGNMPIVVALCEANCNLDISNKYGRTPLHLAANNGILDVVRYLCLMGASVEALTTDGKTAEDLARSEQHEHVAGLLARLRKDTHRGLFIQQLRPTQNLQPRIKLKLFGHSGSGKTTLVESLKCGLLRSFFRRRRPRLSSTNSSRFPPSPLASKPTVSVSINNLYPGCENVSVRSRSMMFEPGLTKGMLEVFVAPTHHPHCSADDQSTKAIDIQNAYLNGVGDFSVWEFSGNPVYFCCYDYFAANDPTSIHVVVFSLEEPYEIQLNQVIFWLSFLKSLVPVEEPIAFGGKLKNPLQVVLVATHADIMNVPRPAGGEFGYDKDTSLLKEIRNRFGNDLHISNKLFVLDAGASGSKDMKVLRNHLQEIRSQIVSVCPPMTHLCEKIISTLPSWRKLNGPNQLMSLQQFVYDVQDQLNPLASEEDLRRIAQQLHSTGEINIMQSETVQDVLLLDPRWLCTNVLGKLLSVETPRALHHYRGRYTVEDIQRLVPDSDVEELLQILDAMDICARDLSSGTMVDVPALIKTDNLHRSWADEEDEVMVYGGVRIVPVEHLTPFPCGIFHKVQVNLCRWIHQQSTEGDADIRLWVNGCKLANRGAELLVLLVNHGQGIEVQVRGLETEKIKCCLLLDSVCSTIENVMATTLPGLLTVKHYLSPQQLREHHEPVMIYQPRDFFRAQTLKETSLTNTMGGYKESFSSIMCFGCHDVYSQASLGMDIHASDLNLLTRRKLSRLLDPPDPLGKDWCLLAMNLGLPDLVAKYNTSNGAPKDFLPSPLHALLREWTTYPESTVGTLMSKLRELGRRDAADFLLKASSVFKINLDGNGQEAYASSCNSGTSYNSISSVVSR
The target of data set [18] is T3, Inositol hexakisphosphate kinase 1 (Homo sapiens, UniProt Q92551). As to the kind of experiment: Inhibition of N-terminal 6His-MBP-tagged recombinant human IP6K1 expressed in Escherichia coli assessed as inorganic phosphate release using InsP6 as substrate in presence of ATP measured after 60 to 120 mins by malachite green based colorimetric - DIPP1 coupled enzyme assay.
Target sequence in this assay (Q92551 whole entry): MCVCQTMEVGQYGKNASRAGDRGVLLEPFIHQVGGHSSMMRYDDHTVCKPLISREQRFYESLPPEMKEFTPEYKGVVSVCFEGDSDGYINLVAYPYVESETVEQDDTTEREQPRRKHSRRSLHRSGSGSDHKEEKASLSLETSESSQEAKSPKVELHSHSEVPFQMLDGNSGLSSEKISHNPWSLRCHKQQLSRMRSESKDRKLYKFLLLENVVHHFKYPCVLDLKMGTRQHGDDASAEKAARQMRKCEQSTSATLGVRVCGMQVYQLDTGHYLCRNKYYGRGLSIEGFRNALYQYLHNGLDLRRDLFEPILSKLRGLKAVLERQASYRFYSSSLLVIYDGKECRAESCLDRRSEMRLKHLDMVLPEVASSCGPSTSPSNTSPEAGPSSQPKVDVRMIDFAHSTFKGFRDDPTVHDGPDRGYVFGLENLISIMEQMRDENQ

Data set [19] concerns the target T3, Inositol hexakisphosphate kinase 1. In words: Inhibition of recombinant full length human IP6K1 in HCT-116 cells assessed as reduction in InsP7 level at 10 to 30 uM measured after 30 mins by toluidine blue staining based analysis. The format is cell-based. The note with it: dose 10-30 µM.
Target sequence in this assay (Q92551 whole entry, looked up): as the sequence (Q92551 whole entry) above
Data set [20] concerns the target T2, Inositol hexakisphosphate kinase 2. As to the kind of experiment: Inhibition of recombinant full length human IP6K2 assessed as inorganic phosphate release measured after 30 mins by ADP-Glo Max assay. In general terms: In ADP-Glo the light output rises with the ADP produced.
For data set [21], the target named is T3, Inositol hexakisphosphate kinase 1. As to the kind of experiment: Inhibition of recombinant full length human IP6K1 assessed as inorganic phosphate release measured after 30 mins by ADP-Glo Max assay.
Target sequence in this assay (Q92551 whole entry): as above
In data set [22] the target is T1, Inositol hexakisphosphate kinase 3. In words: Inhibition of recombinant full length human IP6K3 assessed as inorganic phosphate release measured after 2 hrs by ADP-Glo Max assay.

Activity calls are given as the source filed them. The rule behind the calls is not given here.

In the case of `O=C(O)c1ccc2noc(-c3cccc(NC(=O)C4CC4)c3)c2c1`, in data set [1], the IC50 (commonly the point on the concentration scale where inhibition reaches its midpoint) came to 2810 nM.

As for `O=C(O)/C=C/c1ccc2noc(-c3ccc(-c4ccccc4)cc3)c2c1`, the 50% inhibitory concentration (IC50) in data set [1] turned out to be 200 nM.

`O=C(O)c1ccc2noc(-c3cccc(C(F)(F)F)c3)c2c1`: the IC50 in data set [1] amounted to 4620 nM.

In the case of `O=C(O)/C=C/c1ccc2noc(-c3ccc(OC(F)(F)F)cc3)c2c1`, the half-maximal inhibitory concentration (IC50) in data set [1] is 8370 nM.

`CC(C)NC(=O)c1ccc(-c2onc3ccc(C(=O)O)cc23)cc1`: the IC50 stood at 350 nM in data set [2] and 340 nM in data set [1].

For the molecule `CN(C)C(=O)/C=C/c1ccc2noc(-c3ccccc3)c2c1`, the IC50 in data set [1] was above 100000 nM. In addition, the Ratio IC50 in the data set listed under Homo sapiens was above 3.4.

Consider `O=C(O)c1ccc2noc(-c3cccc(-c4ccccc4)c3)c2c1`, for which the half-inhibitory concentration (IC50) in data set [2] turned out to be 130 nM; in [1], 840 nM.

Take `O=C(O)c1ccc2noc(-c3ccc(-c4ccccc4)cc3)c2c1`: the outcome with Mus musculus [3], in the data set on Mus musculus [8], in the data set with Mus musculus [9], in the data set on Mus musculus [10], in the data set with Mus musculus [11] and with Mus musculus [12] was Active. Further, the result with Mus musculus [13], in the data set with Mus musculus [14], with Mus musculus [15] and in the data set on Mus musculus [16] was Active. In addition, the inhibition (commonly the percentage by which the read-out fell short of the control) in data set [4] was “Active”. Also, the inhibition at 10 µM on CYP2C9 was 36%. The AUClast in data set [5] was 6054 ng·h/mL; in [6], 2527 ng·h/mL. In addition, in [7], the clearance (in general, the volume of plasma or blood freed of the substance per unit of time) was found to be 13.7 mL/min/kg. This molecule came in with an inhibition in [17] of 31%.

On to `CC(C)C(=O)Nc1ccc(-c2onc3ccc(C(=O)O)cc23)cc1`, for which the IC50 in data set [2] turned out to be 820 nM; in data set [1], 210 nM.

Take `O=[N+]([O-])c1ccc(CNc2nc(NCc3cccc(C(F)(F)F)c3)nc3[nH]cnc23)cc1`: the IC50 in [18] is 1000 nM; in data set [2] it was 2000 nM; in data set [1], 14500 nM.

As to `O=C(O)c1ccc2c(c1)C1(CCN(C(=O)c3ccc(Cl)cc3)CC1)C(=O)N2`, the inhibition entry in [19] was “Active”. Moreover, the IC50 is 25 nM in [20], 27 nM in [21] and 8 nM in [22].

As to `O=C(O)c1ccc2noc(-c3ccc(Cc4ccccc4)cc3)c2c1`, in data set [1], the IC50 turned out to be 1290 nM.

On to `O=C(O)c1ccc2noc(-c3cccc(Oc4ccccc4)c3)c2c1`, for which the half-inhibitory concentration (IC50) in data set [1] came out at 850 nM.

For the molecule `O=C(O)c1ccc2noc(-c3ccc(NC(=O)c4ccccc4)cc3)c2c1`, the IC50 in [1] is 200 nM.

With `O=C(O)c1ccc2noc(-c3ccc(NC(=O)C4CCCC4)cc3)c2c1`, in data set [1], the half-inhibitory concentration (IC50) was 240 nM.

`O=C(O)c1ccc2noc(-c3ccc(NC(=O)c4ccncn4)cc3)c2c1`: in data set [1], the 50% inhibitory concentration (IC50) was 430 nM.

Take `O=C(O)c1ccc2noc(-c3cccc(Oc4ncc(Cl)cc4Cl)c3)c2c1`: the concentration for half-maximal inhibition (IC50) in data set [1] was determined as 3090 nM.

Regarding `O=C(O)c1ccc2noc(-c3ccc(Oc4ncc(Cl)cc4Cl)cc3)c2c1`, the half-inhibitory concentration (IC50) in data set [18] was 430 nM; in [1], 2250 nM. For the same molecule, in the data set filed under Homo sapiens, the Ratio IC50 was determined as 5.2.

As to `O=C(O)c1ccc2noc(-c3ccccc3)c2c1`, the IC50 in data set [1] stood at 2690 nM.

Turning to `Cc1cccc(-c2onc3ccc(C(=O)O)cc23)c1`, in [1], the IC50 amounted to 1410 nM.

With `Cc1cccc(-c2onc3ccc(/C=C/C(=O)O)cc23)c1`, the IC50 in [1] came out at 3590 nM.

For `O=C(O)c1ccc2noc(-c3cccc(Oc4ccccn4)c3)c2c1`, in data set [1], the IC50 worked out at 10900 nM.

Regarding `O=C(O)/C=C/c1ccc2c(-c3ccccc3)onc2c1`, the Ratio IC50 in the data set listed under Homo sapiens was determined as 3.6.

For the molecule `O=C(O)c1ccc2noc(-c3ccc(Oc4ccccc4)cc3)c2c1`, the IC50 in data set [1] turned out to be 550 nM.

With `O=C(O)c1ccc2noc(-c3ccc(N4CCCCC4)cc3)c2c1`, the IC50 in data set [1] was found to be 1790 nM.

As for `Cc1cc(C)cc(-c2onc3ccc(C(=O)O)cc23)c1`, the half-maximal inhibitory concentration (IC50) in data set [1] stood at 2440 nM.

On to `O=C(O)c1ccc2noc(-c3ccc(N4CCCC4=O)cc3)c2c1`, for which the IC50 in [1] worked out at 2170 nM.

For the molecule `O=C(O)/C=C/c1ccc2noc(-c3ccc(Oc4ccccc4)cc3)c2c1`, the half-maximal inhibitory concentration (IC50) in data set [1] is 760 nM.

With `O=C(O)c1ccc2noc(-c3ccc(-c4ccncc4)cc3)c2c1`, the half-maximal inhibitory concentration (IC50) in data set [1] was 670 nM.
